The source of these data is patent US11130733B2, “4-OXO-alkylated tetramic acid compound, preparation method and use thereof” (BEIJING JOEKAI BIOTECH. LLC, priority 2017, dated 2021).

Each structure is given as a SMILES string.

The test system of data set [1] is Salmonella typhimurium TA98. Put plainly: Mini Ames experiment, strain TA98. In kind it is cell-based. As to the method:
(§1) Histidine auxotrophic strains of Salmonella typhimurium were cultured in a special medium with quite a low content of histidine. The strains were difficult to divide due to lack of nutrition. If a test compound has mutagenicity, a large number of cells will undergo reverse mutation, synthesizing histidine by themselves and developing into colonies visible to the naked eye. In view of the close relationship between mutagenicity and carcinogenesis of chemicals, this method has been widely used in screening carcinogens. Some chemicals need metabolic activation to induce mutagenicity. Mammalian microsomal enzyme S9 can be added into the test system to eliminate the influence of metabolic activation on generation of mutagenicity.
(§2) […] Mini Ames test with compound 50561

Data set [2] concerns Salmonella typhimurium TA100. As to the kind of experiment: Mini Ames experiment, strain TA100. In kind it is cell-based. As to the method: as §1, §2
Data set [3] has as its system Drosophilae containing and expressing human Abeta42 gene. As to the kind of experiment: Pavlov's olfactory-related instantaneous memory test in Drosophila. Format: in vivo. The following applies: FIG. 3; with increase of dosage; compared with positive compound memantine hydrochloride.
Data set [4] shares this test system. The description is as above. The following applies: test medicament 100 μM, 50 μL per 100 drosophilae, 7 consecutive days; FIG. 1 and FIG. 2. In kind it is in vivo. From the text: Drosophila has a classical learning and memory paradigm, known as Pavlov's olfactory-related instantaneous memory. During the training program, a group of about 100 drosophilae were exposed sequentially to two odors, i.e., 3-octanol and 4-methylcyclohexanol, each odor for 60 seconds, and to fresh air for 45 seconds therebetween. During exposure to the first odor, the drosophilae were electrocuted on their feet (1.5-second pulses at 3.5-second intervals, 60V), while no electrocution was exerted during exposure to the second odor. In order to detect “instantaneous memory” (also known as “learning”), drosophilae were transferred to the selection area in the T maze immediately after training and forced to choose between the two odors. The drosophilae in each T-maze arm were then captured, anesthetized, and counted. The behavior index was calculated from the distribution of drosophilae in the T maze. […] In each experiment, the age of the control group was matched with that of the experimental group.
Pharmacodynamic evaluation of the candidate compounds: Drosophilae containing and expressing human Abeta42 gene were selected as a diseased control, and drosophilae containing but not expressing human Abeta42 gene were selected as a healthy control. The day after emergence of the drosophilae, male drosophilae were selected and fed. Starting from the third day, drosophilae were fed with a test medicament (100 μM, 50 μL per 100 drosophilae) for 7 consecutive days, 4 hours each day. The above memory test was performed on the drosophilae on the tenth day.

[5] abbreviates: TA98, With Metabolic Activation, control article 0.4 μg per well.
[6] abbreviates: TA100, With Metabolic Activation, control article 0.4 μg per well.
The mark [7] stands for this setting: TA98, Without Metabolic Activation, control article 2.0 μg per well.
Where [8] appears, read: TA100, Without Metabolic Activation, control article 0.2 μg per well.

Consider `Nc1ccc2cc3ccccc3cc2c1` [Compound 2-AA, reference compound], for which, in data set [1] (setting [5]), the “Mean Revertants Per Well” value is on record as 297.67 and the “Ratio Treated/Solvent” value stood at 35.72. Further, in data set [2] (setting [6]), the “Mean Revertants Per Well” value is given as 317.67 and the “Ratio Treated/Solvent” value turned out to be 9.72.

Take `O=[N+]([O-])c1ccc2c(c1)Cc1ccccc1-2` [Compound 2-NF, reference compound]: in data set [1] (setting [7]), the “Mean Revertants Per Well” value is 421.00 and the “Ratio Treated/Solvent” value was 61.61.

On to `O=C1C=C(OCc2ccccc2F)[C@H](Cc2ccccc2)N1` [Compound 51121], for which the “dose-effect relationship to improve memory of drosophilae” value (“dose-effect relationship” below) in data set [3] is listed as “eventually reaches or exceeds the level of the activity of the positive compound memantine hydrochloride”. Besides, in data set [4], the “ability to improve the learning and memory of drosophilae” value (“ability” below) was “best ability to improve the learning and memory of drosophilae”.

As for `O=C1C=C(OCc2cccs2)[C@H](Cc2ccccc2)N1` [Compound 51151], the “dose-effect relationship” value in data set [3] is given as “eventually reaches or exceeds the level of the activity of the positive compound memantine hydrochloride”. The “ability” value in data set [4] is “best ability to improve the learning and memory of drosophilae”.

`O=C1C=C(OCc2cccc3ccccc23)[C@H](Cc2ccccc2)N1` [Compound 51311]: in data set [3], the “dose-effect relationship” value is reported as “eventually reaches or exceeds the level of the activity of the positive compound memantine hydrochloride”. For the same compound, in data set [4], the “ability” value was “best ability to improve the learning and memory of drosophilae”.

With `CC(=O)Oc1ccc(COC2=CC(=O)N[C@H]2Cc2ccccc2)cc1` [Compound 51351], in data set [3], the “dose-effect relationship” value was “eventually reaches or exceeds the level of the activity of the positive compound memantine hydrochloride”. Further, the “ability” value in data set [4] was “best ability to improve the learning and memory of drosophilae”.

As to `COc1ccc(C[C@@H]2NC(=O)C=C2OCc2ccc(OC(C)=O)cc2)cc1` [Compound 60111], in data set [4], the “ability” value is “quite a good ability to improve learning and memory of drosophilae”.

Turning to `[N-]=[N+]=[N-].[Na+]` [SA, reference compound], in data set [2] (setting [8]), the “Mean Revertants Per Well” value was found to be 195.33 and the “Ratio Treated/Solvent” value was determined as 7.92.
